Data reported in the NIST ThermoML archive (doi:10.1021/je300339q).
Numbers after ± are expanded uncertainties.

Experiments:
[1] = mn = molality of the nth substance listed, in mol/kg; settings: 101 kPa, Liquid, Direct current cell with electrodes
[2] = 101.33 kPa, Liquid; for viscosity: Capillary tube (Ostwald / Ubbelohde) method; for mass density: Vibrating tube method

CCCCn1cc[n+](CCC)c1.[Br-] [1-butyl-3-propyl-1H-imidazolium bromide] + CC#N
molar conductivity ([1]; 308 K, m1 = 0.01014): 0.00955 ± 6e-06 S·m2/mol
molar conductivity ([1]; 308 K, m1 = 0.01352): 0.00916 ± 6e-06 S·m2/mol
molar conductivity ([1]; 308 K, m1 = 0.01803): 0.008751 ± 5e-06 S·m2/mol
molar conductivity ([1]; 308 K, m1 = 0.02405): 0.008325 ± 5e-06 S·m2/mol
molar conductivity ([1]; 308 K, m1 = 0.0275): 0.008123 ± 5e-06 S·m2/mol
molar conductivity ([1]; 308 K, m1 = 0.03209): 0.007883 ± 4e-06 S·m2/mol
molar conductivity ([1]; 308 K, m1 = 0.04281): 0.007424 ± 4e-06 S·m2/mol
molar conductivity ([1]; 308 K, m1 = 0.05714): 0.006944 ± 4e-06 S·m2/mol
molar conductivity ([1]; 308 K, m1 = 0.0656): 0.006707 ± 4e-06 S·m2/mol
molar conductivity ([1]; 308 K, m1 = 0.07628): 0.006433 ± 4e-06 S·m2/mol
molar conductivity ([1]; 308 K, m1 = 0.08982): 0.006124 ± 4e-06 S·m2/mol
molar conductivity ([1]; 308 K, m1 = 0.09987): 0.00592 ± 4e-06 S·m2/mol
molar conductivity ([1]; 313 K, m1 = 0.01014): 0.010075 ± 7e-06 S·m2/mol
molar conductivity ([1]; 313 K, m1 = 0.01352): 0.009604 ± 6e-06 S·m2/mol
molar conductivity ([1]; 313 K, m1 = 0.01803): 0.009155 ± 6e-06 S·m2/mol
molar conductivity ([1]; 313 K, m1 = 0.02405): 0.008691 ± 5e-06 S·m2/mol
molar conductivity ([1]; 313 K, m1 = 0.03209): 0.008213 ± 5e-06 S·m2/mol
molar conductivity ([1]; 313 K, m1 = 0.04281): 0.007724 ± 4e-06 S·m2/mol
molar conductivity ([1]; 313 K, m1 = 0.04875): 0.007467 ± 4e-06 S·m2/mol
molar conductivity ([1]; 313 K, m1 = 0.05714): 0.007222 ± 4e-06 S·m2/mol
molar conductivity ([1]; 313 K, m1 = 0.0656): 0.006956 ± 4e-06 S·m2/mol
molar conductivity ([1]; 313 K, m1 = 0.07628): 0.006701 ± 4e-06 S·m2/mol
molar conductivity ([1]; 313 K, m1 = 0.08982): 0.006393 ± 4e-06 S·m2/mol
molar conductivity ([1]; 313 K, m1 = 0.09987): 0.006199 ± 4e-06 S·m2/mol
molar conductivity ([1]; 318 K, m1 = 0.01014): 0.01063 ± 7e-06 S·m2/mol
molar conductivity ([1]; 318 K, m1 = 0.01352): 0.010128 ± 7e-06 S·m2/mol
molar conductivity ([1]; 318 K, m1 = 0.01803): 0.009627 ± 6e-06 S·m2/mol
molar conductivity ([1]; 318 K, m1 = 0.02405): 0.009114 ± 6e-06 S·m2/mol
molar conductivity ([1]; 318 K, m1 = 0.03209): 0.008595 ± 5e-06 S·m2/mol
molar conductivity ([1]; 318 K, m1 = 0.04281): 0.008054 ± 5e-06 S·m2/mol
molar conductivity ([1]; 318 K, m1 = 0.04875): 0.007807 ± 5e-06 S·m2/mol
molar conductivity ([1]; 318 K, m1 = 0.05714): 0.007523 ± 4e-06 S·m2/mol
molar conductivity ([1]; 318 K, m1 = 0.0656): 0.007255 ± 4e-06 S·m2/mol
molar conductivity ([1]; 318 K, m1 = 0.07628): 0.006968 ± 4e-06 S·m2/mol
molar conductivity ([1]; 318 K, m1 = 0.08982): 0.006648 ± 4e-06 S·m2/mol
molar conductivity ([1]; 318 K, m1 = 0.09987): 0.006435 ± 4e-06 S·m2/mol

CCCCn1cc[n+](CCC)c1.[Br-] [1-butyl-3-propyl-1H-imidazolium bromide] + CO
molar conductivity ([1]; 308 K, m1 = 0.005755): 0.006546 ± 5e-06 S·m2/mol
molar conductivity ([1]; 308 K, m1 = 0.007673): 0.006395 ± 5e-06 S·m2/mol
molar conductivity ([1]; 308 K, m1 = 0.01023): 0.006239 ± 5e-06 S·m2/mol
molar conductivity ([1]; 308 K, m1 = 0.01364): 0.006083 ± 5e-06 S·m2/mol
molar conductivity ([1]; 308 K, m1 = 0.01819): 0.005932 ± 5e-06 S·m2/mol
molar conductivity ([1]; 308 K, m1 = 0.02425): 0.005792 ± 5e-06 S·m2/mol
molar conductivity ([1]; 308 K, m1 = 0.03234): 0.005668 ± 5e-06 S·m2/mol
molar conductivity ([1]; 308 K, m1 = 0.04311): 0.005561 ± 5e-06 S·m2/mol
molar conductivity ([1]; 308 K, m1 = 0.05749): 0.005468 ± 5e-06 S·m2/mol
molar conductivity ([1]; 308 K, m1 = 0.07665): 0.005372 ± 5e-06 S·m2/mol
molar conductivity ([1]; 308 K, m1 = 0.09017): 0.005304 ± 4e-06 S·m2/mol
molar conductivity ([1]; 308 K, m1 = 0.1002): 0.005238 ± 4e-06 S·m2/mol
molar conductivity ([1]; 313 K, m1 = 0.007673): 0.006815 ± 6e-06 S·m2/mol
molar conductivity ([1]; 313 K, m1 = 0.01023): 0.006658 ± 5e-06 S·m2/mol
molar conductivity ([1]; 313 K, m1 = 0.01364): 0.006493 ± 5e-06 S·m2/mol
molar conductivity ([1]; 313 K, m1 = 0.01819): 0.006333 ± 5e-06 S·m2/mol
molar conductivity ([1]; 313 K, m1 = 0.02425): 0.006185 ± 5e-06 S·m2/mol
molar conductivity ([1]; 313 K, m1 = 0.03234): 0.006052 ± 5e-06 S·m2/mol
molar conductivity ([1]; 313 K, m1 = 0.04311): 0.005936 ± 5e-06 S·m2/mol
molar conductivity ([1]; 313 K, m1 = 0.05749): 0.005832 ± 5e-06 S·m2/mol
molar conductivity ([1]; 313 K, m1 = 0.07665): 0.005703 ± 5e-06 S·m2/mol
molar conductivity ([1]; 313 K, m1 = 0.09017): 0.005611 ± 5e-06 S·m2/mol
molar conductivity ([1]; 313 K, m1 = 0.1002): 0.00554 ± 5e-06 S·m2/mol
molar conductivity ([1]; 318 K, m1 = 0.005755): 0.00748 ± 6e-06 S·m2/mol
molar conductivity ([1]; 318 K, m1 = 0.007673): 0.00729 ± 6e-06 S·m2/mol
molar conductivity ([1]; 318 K, m1 = 0.01023): 0.007119 ± 6e-06 S·m2/mol
molar conductivity ([1]; 318 K, m1 = 0.01364): 0.006946 ± 6e-06 S·m2/mol
molar conductivity ([1]; 318 K, m1 = 0.01819): 0.006781 ± 6e-06 S·m2/mol
molar conductivity ([1]; 318 K, m1 = 0.02425): 0.006627 ± 6e-06 S·m2/mol
molar conductivity ([1]; 318 K, m1 = 0.03234): 0.006491 ± 5e-06 S·m2/mol
molar conductivity ([1]; 318 K, m1 = 0.04311): 0.006371 ± 5e-06 S·m2/mol
molar conductivity ([1]; 318 K, m1 = 0.05749): 0.006257 ± 5e-06 S·m2/mol
molar conductivity ([1]; 318 K, m1 = 0.07665): 0.006123 ± 5e-06 S·m2/mol
molar conductivity ([1]; 318 K, m1 = 0.09017): 0.006016 ± 5e-06 S·m2/mol
molar conductivity ([1]; 318 K, m1 = 0.1002): 0.005923 ± 5e-06 S·m2/mol

CCCCn1cc[n+](CCC)c1.[Br-] [1-butyl-3-propyl-1H-imidazolium bromide] + O
molar conductivity ([1]; 308 K, m1 = 0.005651): 0.012224 ± 1.1e-05 S·m2/mol
molar conductivity ([1]; 308 K, m1 = 0.007536): 0.012106 ± 1.1e-05 S·m2/mol
molar conductivity ([1]; 308 K, m1 = 0.01005): 0.011972 ± 1.1e-05 S·m2/mol
molar conductivity ([1]; 308 K, m1 = 0.01341): 0.011818 ± 1.1e-05 S·m2/mol
molar conductivity ([1]; 308 K, m1 = 0.0179): 0.011642 ± 1.1e-05 S·m2/mol
molar conductivity ([1]; 308 K, m1 = 0.02389): 0.011441 ± 1.1e-05 S·m2/mol
molar conductivity ([1]; 308 K, m1 = 0.0319): 0.011212 ± 1.1e-05 S·m2/mol
molar conductivity ([1]; 308 K, m1 = 0.04262): 0.01095 ± 1.1e-05 S·m2/mol
molar conductivity ([1]; 308 K, m1 = 0.05696): 0.01065 ± 1e-05 S·m2/mol
molar conductivity ([1]; 308 K, m1 = 0.07621): 0.010304 ± 1e-05 S·m2/mol
molar conductivity ([1]; 308 K, m1 = 0.08987): 0.010084 ± 1e-05 S·m2/mol
molar conductivity ([1]; 308 K, m1 = 0.1): 0.00996 ± 1e-05 S·m2/mol
molar conductivity ([1]; 313 K, m1 = 0.005651): 0.013136 ± 1e-05 S·m2/mol
molar conductivity ([1]; 313 K, m1 = 0.007536): 0.013013 ± 1e-05 S·m2/mol
molar conductivity ([1]; 313 K, m1 = 0.01005): 0.012872 ± 1e-05 S·m2/mol
molar conductivity ([1]; 313 K, m1 = 0.01341): 0.012712 ± 1e-05 S·m2/mol
molar conductivity ([1]; 313 K, m1 = 0.0179): 0.012531 ± 1e-05 S·m2/mol
molar conductivity ([1]; 313 K, m1 = 0.02389): 0.01232 ± 1e-05 S·m2/mol
molar conductivity ([1]; 313 K, m1 = 0.0319): 0.012091 ± 1e-05 S·m2/mol
molar conductivity ([1]; 313 K, m1 = 0.04262): 0.011824 ± 1.1e-05 S·m2/mol
molar conductivity ([1]; 313 K, m1 = 0.05696): 0.011518 ± 1.1e-05 S·m2/mol
molar conductivity ([1]; 313 K, m1 = 0.07621): 0.011165 ± 1.1e-05 S·m2/mol
molar conductivity ([1]; 313 K, m1 = 0.08987): 0.01094 ± 1.1e-05 S·m2/mol
molar conductivity ([1]; 313 K, m1 = 0.1): 0.0108 ± 1.1e-05 S·m2/mol
molar conductivity ([1]; 318 K, m1 = 0.005651): 0.01387 ± 1e-05 S·m2/mol
molar conductivity ([1]; 318 K, m1 = 0.007536): 0.01376 ± 1e-05 S·m2/mol
molar conductivity ([1]; 318 K, m1 = 0.01005): 0.013625 ± 1e-05 S·m2/mol
molar conductivity ([1]; 318 K, m1 = 0.01341): 0.013474 ± 1e-05 S·m2/mol
molar conductivity ([1]; 318 K, m1 = 0.0179): 0.013305 ± 1e-05 S·m2/mol
molar conductivity ([1]; 318 K, m1 = 0.02389): 0.013116 ± 1e-05 S·m2/mol
molar conductivity ([1]; 318 K, m1 = 0.0319): 0.012905 ± 1e-05 S·m2/mol
molar conductivity ([1]; 318 K, m1 = 0.04262): 0.012669 ± 1e-05 S·m2/mol
molar conductivity ([1]; 318 K, m1 = 0.05696): 0.012401 ± 1.1e-05 S·m2/mol
molar conductivity ([1]; 318 K, m1 = 0.07621): 0.012094 ± 1.1e-05 S·m2/mol
molar conductivity ([1]; 318 K, m1 = 0.08987): 0.011898 ± 1.1e-05 S·m2/mol
molar conductivity ([1]; 318 K, m1 = 0.1): 0.01177 ± 1.1e-05 S·m2/mol

CC#N [acetonitrile]
viscosity ([2]; 308.15 K): 0.3125 ± 0.013 mPa·s
mass density ([2]; 308.15 K): 765.64 ± 0.25 kg/m3
viscosity ([2]; 313.15 K): 0.3042 ± 0.013 mPa·s
mass density ([2]; 313.15 K): 759.7 ± 0.25 kg/m3
viscosity ([2]; 318.15 K): 0.2903 ± 0.011 mPa·s
mass density ([2]; 318.15 K): 755.01 ± 0.25 kg/m3

CO [methanol]
viscosity ([2]; 308.15 K): 0.4747 ± 0.0059 mPa·s
mass density ([2]; 308.15 K): 777.18 ± 0.13 kg/m3
viscosity ([2]; 313.15 K): 0.444 ± 0.0058 mPa·s
mass density ([2]; 313.15 K): 772.5 ± 0.13 kg/m3
viscosity ([2]; 318.15 K): 0.4185 ± 0.0057 mPa·s
mass density ([2]; 318.15 K): 767.7 ± 0.13 kg/m3
